From patent publication US20250074871A1, “PHENETHYLAMINES AND METHODS OF PREPARATION THEREOF” (priority 2022, published 2025)

Legend:
[1] = biological target: T1, 5-HT2A receptor (Homo sapiens, UniProt P28223); test: 5-HT2A Gq dissociation BRET functional assay; format: cell-based; details: for 5-HT2A BRET Eff %: normalized to % 5-HT stimulation
T1 construct: expressed in transfected cells; host or cells: HEK293T

[2] = biological target: 5-HT7 (Homo sapiens, UniProt P34969); test: 5-HT receptor activity panel (Table 3); format: cell-based
[3] = biological target: 5-HT1B (Homo sapiens, UniProt P28222); test: 5-HT receptor activity panel (Table 3); format: cell-based
[4] = biological target: T2, 5-HT1F (Homo sapiens, UniProt P30939); test: 5-HT receptor activity panel (Table 3); format: cell-based; details: Table 3
T2 sequence (P30939 1-366): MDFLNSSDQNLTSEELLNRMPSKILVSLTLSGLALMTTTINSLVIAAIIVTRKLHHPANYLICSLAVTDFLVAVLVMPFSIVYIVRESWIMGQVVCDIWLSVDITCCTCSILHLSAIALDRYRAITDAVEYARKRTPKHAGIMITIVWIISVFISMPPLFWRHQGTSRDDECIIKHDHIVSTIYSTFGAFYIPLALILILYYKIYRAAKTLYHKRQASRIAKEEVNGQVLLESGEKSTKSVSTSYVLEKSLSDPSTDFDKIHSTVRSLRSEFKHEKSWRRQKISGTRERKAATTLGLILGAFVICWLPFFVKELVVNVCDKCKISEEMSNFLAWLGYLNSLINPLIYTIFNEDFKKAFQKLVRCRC

[5] = biological target: 5-HT1D (Homo sapiens, UniProt P28221); test: 5-HT receptor activity panel (Table 3); format: cell-based
[6] = biological target: 5-HT4 (Homo sapiens, UniProt Q13639); test: 5-HT receptor activity panel (Table 3); format: cell-based
[7] = biological target: 5-HT5A (Homo sapiens, UniProt P47898); test: 5-HT receptor activity panel (Table 3); format: cell-based
[8] = biological target: T3, 5-HT2B receptor (Homo sapiens, UniProt P41595); test: 5-HT2B Gq dissociation BRET functional assay; format: cell-based; details: for 5-HT2B BRET Eff % / EC50 / 5-HT2B BRET EC50 (nM) / Eff %: Table 2; for 5-HT2B BRET Eff %: normalized to % 5-HT stimulation; for EC50: 5-HT2B BRET EC50 (nM), at least three replicate trials
T3 construct: expressed in transfected cells; host or cells: HEK293T

[9] = biological target: 5-HT6 (Homo sapiens, UniProt P50406); test: 5-HT receptor activity panel (Table 3); format: cell-based; details: Table 3
[10] = biological target: 5-HT1E (Homo sapiens, UniProt P28566); test: 5-HT receptor activity panel (Table 3); format: cell-based
[11] = biological target: T4, 5-HT1A (Homo sapiens, UniProt P08908); test: 5-HT receptor activity panel (Table 3); format: cell-based
T4 sequence (P08908 1-422): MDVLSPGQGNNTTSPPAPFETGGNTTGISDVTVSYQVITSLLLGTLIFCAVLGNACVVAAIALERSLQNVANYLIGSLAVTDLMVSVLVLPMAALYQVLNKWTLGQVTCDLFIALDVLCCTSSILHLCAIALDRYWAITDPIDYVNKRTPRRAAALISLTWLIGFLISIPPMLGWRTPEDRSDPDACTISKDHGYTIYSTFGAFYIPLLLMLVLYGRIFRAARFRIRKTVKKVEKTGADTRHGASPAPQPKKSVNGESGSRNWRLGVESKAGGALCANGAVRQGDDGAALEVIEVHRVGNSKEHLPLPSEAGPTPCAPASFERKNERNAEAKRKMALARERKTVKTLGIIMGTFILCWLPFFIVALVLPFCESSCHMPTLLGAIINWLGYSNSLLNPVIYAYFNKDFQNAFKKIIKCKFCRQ

[12] = biological target: T5, 5-HT2C receptor (Homo sapiens, UniProt P28335); test: cell-based; format: cell-based; details: Table 2; for EC50: at least three replicate trials, read-out: 5-HT2C BRET EC50; for 5-HT2C BRET Eff %: normalized to % 5-HT stimulation
T5 construct: expressed in transfected cells; host or cells: HEK293T
T5 sequence (P28335 33-458): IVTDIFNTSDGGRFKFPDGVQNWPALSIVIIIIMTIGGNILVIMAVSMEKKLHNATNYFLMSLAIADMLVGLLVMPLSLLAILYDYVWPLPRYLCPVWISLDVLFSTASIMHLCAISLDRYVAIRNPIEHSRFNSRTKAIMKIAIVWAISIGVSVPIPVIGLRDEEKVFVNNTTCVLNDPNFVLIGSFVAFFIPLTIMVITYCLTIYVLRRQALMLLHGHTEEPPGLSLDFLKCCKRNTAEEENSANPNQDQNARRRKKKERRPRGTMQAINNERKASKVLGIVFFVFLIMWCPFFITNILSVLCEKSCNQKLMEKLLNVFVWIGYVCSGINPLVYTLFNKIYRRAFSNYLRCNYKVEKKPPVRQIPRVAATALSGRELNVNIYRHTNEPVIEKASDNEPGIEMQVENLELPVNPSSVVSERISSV

[13] = test system: mice; test: head-twitch response (HTR) in mice; format: in vivo, male C57BL/6J mice; details: Mus musculus; mice
Procedure: As used herein and unless otherwise specified, the term “HTR” refers to head-twitch response, which is a measurement of 5-HT2A activation in vivo.
As used herein and unless otherwise specified, the term “mice” refers to male C57BL/6J mice (6-8 weeks old).
HTR was assessed using a head-mounted neodymium magnet and a magnetometer detection coil, as described in Halberstadt et al., Psychopharmacology (Berl.), 2013, 227(4): 727-739. Table 8 below summarizes the ED50 in head twitch in mice of various compounds disclosed herein as compared to psilocybin. FIG. 3 illustrates the HTR relative to dose for compound 109: […]

[14] = biological target: T6, human ether-a-go-go-related gene (hERG) K+ channel (Homo sapiens, UniProt Q12809); test: Eurofins hERG Qube APC Assay; format: cell-based; details: for IC50 (hERG)/EC50 (5-HT2A) ratio: Table 4
T6 construct: Eurofins
Text: As used herein and unless otherwise specified, the term “hERG risk” refers to the risk of a compound potentially inhibiting the human ether-a-go-go-related gene (hERG) K^+ channel, thereby leading to QT prolongation.
As a result of, many compounds disclosed in Table 1 and Table 2 were screened for the potential of “hERG risk” using pharmacological assays (e.g. Eurofins™ hERG Qube APC Assay). […].

[15] = 5-HT2A BRET EC50 (nM), Table 2, at least three replicate trials
[16] = EC50 BRET 2A, Table 4, unit inferred

T1 sequence (P28223 whole entry): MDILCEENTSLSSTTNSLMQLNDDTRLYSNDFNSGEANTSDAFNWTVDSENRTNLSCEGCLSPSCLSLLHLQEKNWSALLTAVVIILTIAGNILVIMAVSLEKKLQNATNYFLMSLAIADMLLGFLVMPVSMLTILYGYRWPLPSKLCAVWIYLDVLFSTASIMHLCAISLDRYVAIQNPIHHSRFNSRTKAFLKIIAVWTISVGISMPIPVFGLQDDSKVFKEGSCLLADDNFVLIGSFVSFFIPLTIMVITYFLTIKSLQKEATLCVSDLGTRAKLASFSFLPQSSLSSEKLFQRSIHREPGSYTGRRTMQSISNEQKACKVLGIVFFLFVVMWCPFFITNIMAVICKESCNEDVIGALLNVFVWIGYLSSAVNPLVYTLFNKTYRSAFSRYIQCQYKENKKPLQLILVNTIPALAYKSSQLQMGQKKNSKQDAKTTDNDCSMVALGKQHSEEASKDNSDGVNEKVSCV
T3 sequence (P41595 whole entry): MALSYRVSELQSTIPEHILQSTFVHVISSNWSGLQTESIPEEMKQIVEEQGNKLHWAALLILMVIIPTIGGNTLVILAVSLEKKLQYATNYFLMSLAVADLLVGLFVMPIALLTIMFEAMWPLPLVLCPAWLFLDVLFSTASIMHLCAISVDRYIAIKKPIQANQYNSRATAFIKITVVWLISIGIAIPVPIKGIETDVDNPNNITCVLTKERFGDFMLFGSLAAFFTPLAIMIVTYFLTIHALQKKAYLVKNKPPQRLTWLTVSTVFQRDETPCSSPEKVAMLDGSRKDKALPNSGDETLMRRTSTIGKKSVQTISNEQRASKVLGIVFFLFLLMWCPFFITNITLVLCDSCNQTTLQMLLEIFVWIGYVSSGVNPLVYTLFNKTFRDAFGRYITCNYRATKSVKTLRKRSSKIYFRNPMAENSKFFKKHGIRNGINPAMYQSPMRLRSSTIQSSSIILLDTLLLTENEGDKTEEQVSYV
T6 sequence (Q12809 whole entry): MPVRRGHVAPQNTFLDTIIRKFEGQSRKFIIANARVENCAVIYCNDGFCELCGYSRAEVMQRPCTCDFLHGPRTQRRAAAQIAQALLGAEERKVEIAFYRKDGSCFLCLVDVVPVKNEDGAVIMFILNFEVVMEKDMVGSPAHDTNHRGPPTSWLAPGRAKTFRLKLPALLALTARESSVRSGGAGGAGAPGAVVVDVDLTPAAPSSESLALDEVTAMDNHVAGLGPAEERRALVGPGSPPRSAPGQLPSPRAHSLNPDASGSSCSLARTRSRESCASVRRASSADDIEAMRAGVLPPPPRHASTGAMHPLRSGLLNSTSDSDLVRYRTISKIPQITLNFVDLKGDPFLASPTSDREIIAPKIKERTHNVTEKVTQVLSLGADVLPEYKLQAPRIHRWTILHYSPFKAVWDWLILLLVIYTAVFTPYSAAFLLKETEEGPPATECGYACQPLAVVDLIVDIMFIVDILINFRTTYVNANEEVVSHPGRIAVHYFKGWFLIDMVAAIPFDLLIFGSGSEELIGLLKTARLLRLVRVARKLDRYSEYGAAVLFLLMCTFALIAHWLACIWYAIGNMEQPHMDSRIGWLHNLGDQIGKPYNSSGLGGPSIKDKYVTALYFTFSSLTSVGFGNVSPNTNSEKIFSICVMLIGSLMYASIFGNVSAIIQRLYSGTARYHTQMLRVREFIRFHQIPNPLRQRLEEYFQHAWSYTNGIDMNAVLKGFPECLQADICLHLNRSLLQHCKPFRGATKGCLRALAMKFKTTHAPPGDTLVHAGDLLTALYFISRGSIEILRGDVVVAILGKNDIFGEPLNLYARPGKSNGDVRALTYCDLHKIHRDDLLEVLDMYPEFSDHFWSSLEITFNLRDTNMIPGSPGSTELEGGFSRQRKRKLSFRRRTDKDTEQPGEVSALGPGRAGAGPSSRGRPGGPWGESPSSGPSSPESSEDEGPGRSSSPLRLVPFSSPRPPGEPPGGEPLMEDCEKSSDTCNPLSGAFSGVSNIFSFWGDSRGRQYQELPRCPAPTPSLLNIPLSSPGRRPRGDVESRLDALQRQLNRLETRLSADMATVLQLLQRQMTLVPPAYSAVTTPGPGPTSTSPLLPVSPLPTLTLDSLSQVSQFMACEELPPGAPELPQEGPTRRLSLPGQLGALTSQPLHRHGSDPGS
Sequence of 5-HT6 (P50406 whole entry, species assumed): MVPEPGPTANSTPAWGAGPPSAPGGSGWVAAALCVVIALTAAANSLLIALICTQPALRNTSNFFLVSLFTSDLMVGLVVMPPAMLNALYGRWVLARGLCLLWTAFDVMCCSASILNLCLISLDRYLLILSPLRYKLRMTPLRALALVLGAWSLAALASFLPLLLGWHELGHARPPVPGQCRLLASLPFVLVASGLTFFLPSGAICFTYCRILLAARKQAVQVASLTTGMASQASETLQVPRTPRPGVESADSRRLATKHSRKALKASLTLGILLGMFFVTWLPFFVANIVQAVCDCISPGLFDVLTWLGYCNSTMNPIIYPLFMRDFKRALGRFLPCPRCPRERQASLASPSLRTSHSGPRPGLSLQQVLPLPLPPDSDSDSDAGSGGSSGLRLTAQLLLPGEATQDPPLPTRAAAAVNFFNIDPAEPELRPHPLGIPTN
Sequence of 5-HT1B (P28222 whole entry, species assumed): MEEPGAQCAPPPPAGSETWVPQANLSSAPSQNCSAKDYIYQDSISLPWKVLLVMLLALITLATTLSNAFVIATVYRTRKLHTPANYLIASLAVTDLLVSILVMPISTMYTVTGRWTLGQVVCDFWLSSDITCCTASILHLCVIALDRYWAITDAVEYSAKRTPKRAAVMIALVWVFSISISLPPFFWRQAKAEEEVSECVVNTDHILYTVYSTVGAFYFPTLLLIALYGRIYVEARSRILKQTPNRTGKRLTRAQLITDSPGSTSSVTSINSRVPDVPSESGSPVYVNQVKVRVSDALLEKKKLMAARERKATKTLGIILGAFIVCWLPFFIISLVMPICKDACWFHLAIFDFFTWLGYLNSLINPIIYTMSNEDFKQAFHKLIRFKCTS
Sequence of 5-HT1E (P28566 whole entry, species assumed): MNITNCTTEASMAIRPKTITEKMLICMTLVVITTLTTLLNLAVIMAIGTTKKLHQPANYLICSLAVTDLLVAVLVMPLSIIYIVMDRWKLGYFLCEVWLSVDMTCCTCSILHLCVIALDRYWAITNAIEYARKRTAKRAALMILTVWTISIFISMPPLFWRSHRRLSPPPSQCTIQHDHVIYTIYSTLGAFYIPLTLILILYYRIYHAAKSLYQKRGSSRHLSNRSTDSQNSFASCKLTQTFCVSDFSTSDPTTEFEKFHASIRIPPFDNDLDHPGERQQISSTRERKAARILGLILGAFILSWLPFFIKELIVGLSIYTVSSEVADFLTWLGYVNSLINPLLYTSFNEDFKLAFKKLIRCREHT
Sequence of 5-HT1D (P28221 whole entry, species assumed): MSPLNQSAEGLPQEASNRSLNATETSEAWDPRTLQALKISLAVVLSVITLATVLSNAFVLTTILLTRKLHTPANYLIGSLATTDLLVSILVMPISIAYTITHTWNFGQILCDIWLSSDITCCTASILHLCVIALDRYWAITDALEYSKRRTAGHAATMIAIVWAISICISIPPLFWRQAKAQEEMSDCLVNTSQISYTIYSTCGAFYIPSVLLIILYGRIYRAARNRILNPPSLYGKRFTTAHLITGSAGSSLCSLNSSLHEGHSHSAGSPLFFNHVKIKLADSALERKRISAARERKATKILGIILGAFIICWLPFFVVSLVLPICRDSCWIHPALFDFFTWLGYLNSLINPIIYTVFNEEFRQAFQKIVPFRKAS
Sequence of 5-HT5A (P47898 whole entry, species assumed): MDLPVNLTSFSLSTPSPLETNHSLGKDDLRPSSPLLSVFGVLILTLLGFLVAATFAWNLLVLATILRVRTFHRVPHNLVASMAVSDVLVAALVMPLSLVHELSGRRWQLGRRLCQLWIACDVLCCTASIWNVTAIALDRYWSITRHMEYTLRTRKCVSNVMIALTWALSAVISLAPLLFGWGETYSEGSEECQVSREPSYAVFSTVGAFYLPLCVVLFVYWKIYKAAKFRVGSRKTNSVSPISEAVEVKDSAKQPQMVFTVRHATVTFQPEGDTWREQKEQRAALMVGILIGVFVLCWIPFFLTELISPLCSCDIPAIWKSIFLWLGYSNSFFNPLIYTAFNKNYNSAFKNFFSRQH
Sequence of 5-HT4 (Q13639 whole entry, species assumed): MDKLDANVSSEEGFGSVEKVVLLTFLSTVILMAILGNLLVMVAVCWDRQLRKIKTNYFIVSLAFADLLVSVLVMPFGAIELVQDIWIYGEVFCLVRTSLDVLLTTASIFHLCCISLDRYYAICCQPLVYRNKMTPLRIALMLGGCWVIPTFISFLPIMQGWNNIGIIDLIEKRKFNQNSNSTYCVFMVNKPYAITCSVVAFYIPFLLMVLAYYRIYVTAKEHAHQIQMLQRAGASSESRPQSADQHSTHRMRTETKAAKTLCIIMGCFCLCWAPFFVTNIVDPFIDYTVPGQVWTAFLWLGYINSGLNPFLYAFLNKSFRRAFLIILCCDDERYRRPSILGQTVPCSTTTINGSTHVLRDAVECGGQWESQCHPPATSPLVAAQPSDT
Sequence of 5-HT7 (P34969 whole entry, species assumed): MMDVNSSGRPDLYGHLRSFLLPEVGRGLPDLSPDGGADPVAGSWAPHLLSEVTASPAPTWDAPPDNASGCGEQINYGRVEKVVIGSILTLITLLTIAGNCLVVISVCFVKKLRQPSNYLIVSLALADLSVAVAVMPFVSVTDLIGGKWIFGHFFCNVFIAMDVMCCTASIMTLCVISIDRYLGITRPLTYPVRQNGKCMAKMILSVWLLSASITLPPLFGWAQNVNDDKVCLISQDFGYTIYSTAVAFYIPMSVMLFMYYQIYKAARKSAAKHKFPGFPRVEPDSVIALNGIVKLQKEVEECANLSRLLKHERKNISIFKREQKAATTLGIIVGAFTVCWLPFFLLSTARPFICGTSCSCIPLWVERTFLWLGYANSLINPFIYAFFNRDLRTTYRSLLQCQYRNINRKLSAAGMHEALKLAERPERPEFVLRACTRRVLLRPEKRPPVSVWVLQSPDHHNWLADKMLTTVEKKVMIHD

## CN(C)CCc1c[nH]c2cccc(O)c12 [psilocin, reference compound]
[1]; Table 2
  5-HT2A BRET Eff %: 82%
[1]; Table 3 panel
  5-HT2A Eff, %: 80%
[2]
  EC50: 0.525 µM
[2]; Table 3
  5-HT7 Eff, %: 86%
[3]
  EC50: 0.0143 µM
[3]; Table 3
  5-HT1B Eff, %: 94%
[4]
  5-HT1F Eff, %: 93%
[5]
  EC50: 0.0022 µM
[5]; Table 3
  5-HT1D Eff, %: 102%
[6]
  EC50: 0.563 µM
[6]; Table 3
  5-HT4 Eff, %: 81%
[7]
  EC50: 0.349 µM
[7]; Table 3
  5-HT5A Eff, %: 48%
[8]
  5-HT2B BRET Eff %: 63%
[8]; Table 3 panel
  5-HT2B Eff, %: 32%
[9]
  5-HT6 Eff, %: 74%
[9]; read-out: 5-HT6 EC50
  EC50: 0.182 µM
[10]
  EC50: 0.0104 µM
[10]; Table 3
  5-HT1E Eff, %: 90%
[11]
  EC50: 0.0469 µM
[11]; Table 3
  5-HT1A Eff, %: 93%

## COc1cc(C#N)c(F)cc1CCNCc1ccccc1O [Cpd #117]
[12]
  EC50: 0.0408 µM
  5-HT2C BRET Eff %: 115%
[1]; [15]
  EC50: 3.8 nM
[1]; [16]
  EC50: 3.8 nM
[1]; Table 2
  5-HT2A BRET Eff %: 97%
[13]
  ED50: 2.09 mg/kg
[14]
  IC50: 0.9 µM
  IC50 (hERG)/EC50 (5-HT2A) ratio: 237
[8]
  EC50: 4360 nM
  5-HT2B BRET Eff %: 68%

## Oc1cc(Cl)ccc1CCNCc1ccccc1O [Cpd #131]
[12]
  EC50: 0.0018 µM
  5-HT2C BRET Eff %: 103%
[1]; [15]
  EC50: 2.4 nM
[1]; [16]
  EC50: 2.1 nM
[1]; Table 2
  5-HT2A BRET Eff %: 93%
[13]
  ED50: 1.24 mg/kg
[14]
  IC50: 1.31 µM
  IC50 (hERG)/EC50 (5-HT2A) ratio: 624
[8]
  5-HT2B BRET EC50 (nM) / Eff %: Inactive

## COc1cc(C#N)ccc1CCNCc1ccccc1SC [Cpd #108]
[12]
  EC50: 0.016 µM
  5-HT2C BRET Eff %: 103%
[1]; [15]
  EC50: 2.4 nM
[1]; [16]
  EC50: 2.4 nM
[1]; Table 2
  5-HT2A BRET Eff %: 99%
[13]
  ED50: 7.23 mg/kg
[14]
  IC50: 1.78 µM
  IC50 (hERG)/EC50 (5-HT2A) ratio: 742
[8]
  EC50: 2380 nM
  5-HT2B BRET Eff %: 128%

## CSc1ccc(CCNCc2ccccc2O)c(O)c1 [Cpd #122]
[12]
  EC50: 0.0036 µM
  5-HT2C BRET Eff %: 108%
[1]; [15]
  EC50: 1.6 nM
[1]; [16]
  EC50: 1.4 nM
[1]; Table 2
  5-HT2A BRET Eff %: 92%
[14]
  IC50: 0.79 µM
  IC50 (hERG)/EC50 (5-HT2A) ratio: 564
[8]
  5-HT2B BRET EC50 (nM) / Eff %: inactive
